# Experimental data reported in US20260183356A1, “NOVEL COMBINATION BASED ON RIFAXIMIN AND PROBIOTIC YEASTS, COMPOSITIONS CONTAINING IT AND THEIR USE IN THERAPY” (NYUMA PHARMA SRL, priority 2022, published 2026).
# Assays:
# [1] = test system: Bifidobacterium longum W11; experiment: Microdilution test, control bacterial strain Bifidobacterium longum (growth abatement, OD600); assay type: cell-based; settings: for Abatement of strain growth: Bifidobacterium longum W11
# Procedure: (§1) The test aims to assess the in vitro susceptibility of the yeast Kluyveromyces marxianus to the antibiotic rifaximin. The test is performed by assaying 8 scalar dilutions of rifaximin in liquid culture medium (microdilution). Bacterial strains are tested in parallel as controls. Rifaximin is a synthetic molecule derived from rifamycin. The powder is characterized by poor solubility in water and tendency to self-aggregate in the liquid phase. A preliminary step is then performed to set the solubility conditions of rifaximin at the highest concentration used in the test (0.5 mg/ml). The following strains were used • Kluyveromyces marxianus B099 • Bifidobacterium longum […] • Escherichia coli ATCC 8739 The Escherichia coli bacterial strain was revitalized from a reference stock suspension stored at -80° C. After thawing, working cultures were set up by growing the strain in suitable plate medium under the optimal growth conditions. The other strains were obtained after plating on agarized culture medium of the specific matrices and subsequent isolation of pure colonies. In Table 1 the strains and the growth and inoculation conditions are set forth. [table] In the microdilution test, broth-cultures of the test microorganisms are set up in triplicates in the presence of 8 different concentrations of rifaximin, which are selected in agreement with the client, and 1 concentration of rifamycin corresponding to the highest concentration selected for rifaximin. 100 μl of a solution, 2 times more concentrated (2×) than the desired concentration, and 100 μl of the microbial suspension at a titer given in Table 2.2.1, were added to each well of the 96-wells plates. The 8 concentrations of rifaximin are produced from the 50 mg/ml solution in DMSO in TSB and in parallel in SDB. The final test concentrations are as follows: 0.5 mg/ml-0.25 mg/ml-0.125 mg/ml-0.063 mg/ml-0.031 mg/ml-0.015 mg/ml-0.0078 mg/ml-0.0039 mg/ml. Following the absorbance measurement on the spectrophotometer, the mean of the data recorded for each concentration and the mean of the data from the controls in DMSO or sterile water are calculated. To estimate the microbial growth and determine MIC from the mean data obtained (in the test and controls), the blank data are subtracted and then the control data and the test data are compared with each other to assess any growth or growth inhibition of each strain tested. The growth inhibition is calculated as a percentage by the following formula: [formula] • wherein • A: Mean OD of control • B: Mean OD of the sample at the concentration tested • MIC is considered the lowest concentration of product that can give at least 90% growth inhibition. A solution of rifamycin is prepared, at the 50 mg/ml concentration in sterile water, which is then diluted in tryptic soy broth (TSB) and in parallel in Sabouraud dextrose broth (SDB) until the 0.5 mg/ml concentration used in the test is obtained. The plates are incubated at the optimal temperatures and growth conditions of the various strains tested as described in Example 5. After the days of incubation have passed, the absorbance at 600 nm (OD600) is measured by spectrophotometer. The mean values after subtracting the blank are used to estimate microbial growth and determine MIC.
# [2] = test system: Escherichia coli ATCC 8739; experiment: Microdilution test, control bacterial strain Escherichia coli (growth abatement, OD600); assay type: cell-based
# Procedure: as §1
# [3] = test system: Kluyveromyces marxianus B099; experiment: Microdilution test, susceptibility of Kluyveromyces marxianus to the antibiotic (growth abatement, OD600); assay type: cell-based
# Procedure: as §1
# [4] = Preliminary solubilization test in DMSO; assay type: physicochemical; settings: starting stock solution
# Procedure: The test aims to assess the in vitro susceptibility of the yeast Kluyveromyces marxianus to the antibiotic rifaximin. The test is performed by assaying 8 scalar dilutions of rifaximin in liquid culture medium (microdilution). Bacterial strains are tested in parallel as controls. Rifaximin is a synthetic molecule derived from rifamycin. The powder is characterized by poor solubility in water and tendency to self-aggregate in the liquid phase. A preliminary step is then performed to set the solubility conditions of rifaximin at the highest concentration used in the test (0.5 mg/ml). The exploratory step is performed to set the solubilization conditions of rifaximin and the culture conditions of the microbial strains. Given the poor solubility of rifaximin powder in water and the tendency for self-aggregation in the liquid phase, a solubilization test in DMSO (dimethyl sulfoxide) is performed. […] The first concentration used in the test and the subsequent dilutions (set up in Tryptic soy broth-TSB or Sabouraud dextrose broth-SDB, base-2 serial dilutions) were defined in agreement with the client, based on literature data. The strains were expanded first in liquid medium and then in agarized medium, as described in Table 2.2.1, obtaining growth results that confirmed the use of these media and conditions for the microdilution test as well.
# [5] = rifamycin 0.5 mg/ml (stock in sterile water)
smiles,measurement,setting,value
CO[C@H]1/C=C/O[C@@]2(C)Oc3c(C)c(O)c4c(O)c(cc(O)c4c3C2=O)NC(=O)/C(C)=C\C=C\[C@H](C)[C@H](O)[C@@H](C)[C@@H](O)[C@@H](C)[C@H](OC(C)=O)[C@@H]1C [rifamycin],"Growth inhibition, conclusion in words",[1]; Bifidobacterium longum,inhibits the growth
same,Abatement of strain growth,[1]; [5],87.5%
same,"Growth inhibition, conclusion in words",[2],inhibits the growth
same,Abatement of strain growth,[2]; [5],79.7%
same,"Growth inhibition, conclusion in words",[3],inhibits the growth
same,Abatement of strain growth,[3]; [5],88.9%
CO[C@H]1/C=C/O[C@@]2(C)Oc3c(C)c(O)c4c(O)c(c5c(nc6cc(C)ccn65)c4c3C2=O)NC(=O)/C(C)=C\C=C\[C@H](C)[C@H](O)[C@@H](C)[C@@H](O)[C@@H](C)[C@H](OC(C)=O)[C@@H]1C [rifaximin],"Growth inhibition, conclusion in words",[1]; Bifidobacterium longum,inhibits the growth
same,Growth inhibition,"[1]; Bifidobacterium longum, virtually all concentrations except 0.0039 mg/ml",> 99.9%
same,Abatement of strain growth,[1]; rifaximin 0.0039 mg/ml,45.5%
same,Abatement of strain growth,[1]; rifaximin 0.0078 mg/ml,>99.9%
same,Abatement of strain growth,[1]; rifaximin 0.015 mg/ml,>99.9%
same,Abatement of strain growth,[1]; rifaximin 0.031 mg/ml,>99.9%
same,Abatement of strain growth,[1]; rifaximin 0.063 mg/ml,>99.9%
same,Abatement of strain growth,[1]; rifaximin 0.125 mg/ml,>99.9%
same,Abatement of strain growth,[1]; rifaximin 0.25 mg/ml,98.7%
same,Abatement of strain growth,[1]; rifaximin 0.5 mg/ml,>99.9%
same,Highest concentration in DMSO with no visible precipitates and clear,[4],50 mg/mL
same,"Growth inhibition, conclusion in words",[2],inhibits the growth
same,Growth inhibition,[2]; at ≥0.031 mg/ml concentrations,~99%
same,Abatement of strain growth,[2]; rifaximin 0.0039 mg/ml,45.7%
same,Abatement of strain growth,[2]; rifaximin 0.0078 mg/ml,54.9%
same,Abatement of strain growth,[2]; rifaximin 0.015 mg/ml,94.5%
same,Abatement of strain growth,[2]; rifaximin 0.031 mg/ml,>99.9%
same,Abatement of strain growth,[2]; rifaximin 0.063 mg/ml,99.6%
same,Abatement of strain growth,[2]; rifaximin 0.125 mg/ml,>99.9%
same,Abatement of strain growth,[2]; rifaximin 0.25 mg/ml,98.5%
same,Abatement of strain growth,[2]; rifaximin 0.5 mg/ml,98.1%
same,"Growth inhibition, conclusion in words",[3],does not inhibit the growth
same,Abatement of strain growth,[3]; rifaximin 0.0039 mg/ml,1.5%
same,Abatement of strain growth,[3]; rifaximin 0.0078 mg/ml,−1.7%
same,Abatement of strain growth,[3]; rifaximin 0.015 mg/ml,−3.3%
same,Abatement of strain growth,[3]; rifaximin 0.031 mg/ml,−2.1%
same,Abatement of strain growth,[3]; rifaximin 0.063 mg/ml,−2.6%
same,Abatement of strain growth,[3]; rifaximin 0.125 mg/ml,−3.5%
same,Abatement of strain growth,[3]; rifaximin 0.25 mg/ml,−1.2%
same,Abatement of strain growth,[3]; rifaximin 0.5 mg/ml,−4.7%
